Test results from patent US6670374B1 (priority 2002, dated 2003).
“Also recorded” adds a separate entry of the source.

Legend:
[1] = test system: E. coli O157:H7 strain 86-24; set-up: species or system piglets; conditions: in vivo
[2] = in vivo

Structure (SMILES): O[C@H]1[C@H]2[C@H](O)CCCN2C[C@H]1O [swainsonine]
- progression and severity of disease / outcome at 68 h post challenge [1]: progression of disease was less rapid and for all except one, much less severe; also recorded: Two of the swainsonine-treated pigs were recovering from the disease by 68 h post challenge
- adverse effects [2]: no adverse effects
- lowest concentration at which a protective effect from co-incubation was observed (Vero cells): 0.012 μg/well
- toxic effects in swainsonine control wells (Vero cells): No toxic effects were observed
